According to patent US20230011269A1, “PHARMACEUTICAL COMPOSITION COMPRISING A POTENT INHIBITOR OF URAT1” (Ardea Biosciences, Inc., priority 2015, published 2023):
Values after ≈ are worked out from the molar mass of the structure shown. Read-outs that look alike come from different tables or passages of the source.

Columns and labels:
[1] = aqueous equilibrium solubility at 37° C.; type: physicochemical; conditions: aqueous media, thermodynamic from solid
Excerpt: The solubility of 2-((3-(4-cyanonaphthalen-1-yl)pyridine-4-yl)thio)-2-methylpropanoic acid in aqueous media is highly dependent upon pH.

[2] = test system: serum urate; experiment: Phase 1 single dose study, immediate release formulations: serum urate lowering; type: in vivo, human; conditions: mean maximum observed percentage change from pre-dose in serum urate concentrations (Emax)
Excerpt: (§1) A phase 1, randomized, double-blind, placebo-controlled study in healthy adult male volunteers evaluated single rising doses and the preliminary food effect for 2-((3-(4-cyanonaphthalen-1-yl)pyridine-4-yl)thio)-2-methylpropanoic acid at 6 dose groups with 8 subjects per group. […] Subjects in each dose group were randomized to receive a single dose of either 2-((3-(4-cyanonaphthalen-1-yl)pyridine-4-yl)thio)-2-methylpropanoic acid (6 subjects) or placebo (2 subjects). 2-((3-(4-cyanonaphthalen-1-yl)pyridine-4-yl)thio)-2-methylpropanoic acid was supplied as 1 mg oral solution, 2 mg oral solution, 5 mg tablets, or 20 mg tablets (depending on dose level).
(§2) The mean plasma concentration-time profiles for the IR formulations under fed and fasted conditions are depicted in FIGS. 3a and 3b. Absorption of 2-((3-(4-cyanonaphthalen-1-yl)pyridine-4-yl)thio)-2-methylpropanoic acid following a single oral dose under fasted conditions was rapid. […] When 2-((3-(4-cyanonaphthalen-1-yl)pyridine-4-yl)thio)-2-methylpropanoic acid was administered with food, slightly slower absorption and lower exposure were observed. […] Important pharmacodynamic parameters related to the serum Uric Acid lowering effects are shown in the following two tables: […]

[3] = test system: urine urate excretion; experiment: Phase 1 single dose study, immediate release formulations: urine urate excretion; type: in vivo, human; conditions: 5 mg/Fasted
Excerpt: as §1, §2

[4] = Phase 1 study of MR formulations MR1-5: plasma pharmacokinetics; type: in vivo; conditions: male, human, oral, 5 mg, MR1-MR5 formulations, fasted and fed (Table 9), read-out: average terminal half-life
Experimental: A Phase 1, randomized study to evaluated the PK, PD, and safety and tolerability of 2-((3-(4-cyanonaphthalen-1-yl)pyridine-4-yl)thio)-2-methylpropanoic acid MR formulations in n=12 healthy adult male subjects in fasted and fed states. This study evaluated a total of 5 MR formulations at a 5 mg dose. The MR formulations tested are those described in Examples 2-6. Plasma samples for PK analysis were collected at the following time points: Pre-dose (within 30 minutes before dosing) and at 0.25, 0.5, 0.75, 1, 1.5, 2, 2.5, 3, 4, 5, 6, 8, 10, 12, 24, 30, 36, 48, 54, 60 and 72 hours post-dose. A summary of the mean plasma pharmacokinetic parameters following administration of the MR compositions of 2-((3-(4-cyanonaphthalen-1-yl)pyridine-4-yl)thio)-2-methylpropanoic acid are provided in Table 9.

[5] = Phase 1 crossover study MR4 4 x 2.5 mg vs 10 mg tablet, food effect: plasma pharmacokinetics; conditions: male, human, in vivo
Experimental: A Phase 1, randomized, open label, 4 way crossover PK and PD study in healthy adult male subjects designed to assess the relative bioavailability of 2-((3-(4-cyanonaphthalen-1-yl)pyridine-4-yl)thio)-2-methylpropanoic acid 2.5 mg MR tablets administered as a 10 mg dose (4×2.5 mg tablets) and a single 2-((3-(4-cyanonaphthalen-1-yl)pyridine-4-yl)thio)-2-methylpropanoic acid 10 mg MR tablet. The 10 mg MR tablet was prepared as described in Example 5a. This study also assessed the effect of a low fat and high fat meal on the PK and PD of 2-((3-(4-cyanonaphthalen-1-yl)pyridine-4-yl)thio)-2-methylpropanoic acid 10 mg MR tablets. Sixteen subjects were randomized to 1 of 4 treatment sequences. The treatments administered on Days 1 or 5 according to the randomization schedule were as follows: • Treatment A: 10 mg dose of 2-((3-(4-cyanonaphthalen-1-yl)pyridine-4-yl)thio)-2-methylpropanoic acid, administered as 4×2.5 mg ER tablets, in the fasted state. • Treatment B: 10 mg dose of 2-((3-(4-cyanonaphthalen-1-yl)pyridine-4-yl)thio)-2-methylpropanoic acid, administered as a single 10 mg ER tablet, in the fasted state. […]

[6] = mg of urate per urine collection period

Q: For `CC(C)(Sc1ccncc1-c1ccc(C#N)c2ccccc12)C(=O)O` [2-((3-(4-cyanonaphthalen-1-yl)pyridine-4-yl)thio)-2-methylpropanoic acid], which solubility at 24 h ([1]; pH 1, simulated gastric fluid, 0.1N HCl, pH initial 1.1, pH (24 h) 1.0, read-out: Solubility after 24 hours) is on record?
A: Its solubility at 24 h is 1480 µg/mL (≈ 4250 µM).

Q: What about the solubility at 48 h ([1]; pH 1.1, simulated gastric fluid, 0.1N HCl, pH initial 1.1, pH (48 h) 1.1, read-out: Solubility after 48 hours) of the same molecule?
A: Its solubility at 48 h is 1240 µg/mL (≈ 3550 µM).

Q: And the solubility at 24 h ([1]; pH 1.6, simulated gastric fluid, SGF pH 1.6, pH initial 1.6, pH (24 h) 1.4, read-out: Solubility after 24 hours)?
A: The solubility at 24 h was 415 µg/mL (≈ 1190 µM).

Q: And the solubility at 48 h ([1]; pH 1.6, simulated gastric fluid, SGF pH 1.6, pH initial 1.6, pH (48 h) 1.4, read-out: Solubility after 48 hours)?
A: Its solubility at 48 h is 398 µg/mL (≈ 1140 µM).

Q: And the solubility at 24 h ([1]; pH 3, aqueous buffer, Citrate pH 3.0, pH initial 3.0, pH (24 h) 2.8, read-out: Solubility after 24 hours)?
A: Its solubility at 24 h is 66 µg/mL (≈ 189 µM).

Q: What about the solubility at 48 h ([1]; pH 3, aqueous buffer, Citrate pH 3.0, pH initial 3.0, pH (48 h) 2.8, read-out: Solubility after 48 hours) of the same molecule?
A: Its solubility at 48 h is 65 µg/mL (≈ 187 µM).

Q: What about the solubility at 24 h ([1]; pH 4, aqueous buffer, Succinate pH 4.0, pH initial 4.0, pH (24 h) 3.9, read-out: Solubility after 24 hours) of the same molecule?
A: Its solubility at 24 h is 56 µg/mL (≈ 161 µM).

Q: And the solubility at 48 h ([1]; pH 4, aqueous buffer, Succinate pH 4.0, pH initial 4.0, pH (48 h) 3.9, read-out: Solubility after 48 hours)?
A: Its solubility at 48 h is 55 µg/mL (≈ 158 µM).

Q: And the solubility at 24 h ([1]; pH 4.5, aqueous buffer, Acetate pH 4.5, pH initial 4.6, pH (24 h) 4.5, read-out: Solubility after 24 hours)?
A: The solubility at 24 h was 70 µg/mL (≈ 201 µM).

Q: What about the solubility at 48 h ([1]; pH 4.5, aqueous buffer, Acetate pH 4.5, pH initial 4.6, pH (48 h) 4.5, read-out: Solubility after 48 hours) of the same molecule?
A: The solubility at 48 h was 65 µg/mL (≈ 187 µM).

Q: And the solubility at 24 h ([1]; pH 5, aqueous buffer, Citrate pH 5.0, pH initial 5.0, pH (24 h) 5.0, read-out: Solubility after 24 hours)?
A: Its solubility at 24 h is 97 µg/mL (≈ 278 µM).

Q: And the solubility at 48 h ([1]; pH 5, aqueous buffer, Citrate pH 5.0, pH initial 5.0, pH (48 h) 4.9, read-out: Solubility after 48 hours)?
A: The solubility at 48 h was 95 µg/mL (≈ 273 µM).

Q: What about the solubility at 48 h ([1]; pH 5.3, water, Water, pH initial 6.3, pH (48 h) 5.3, read-out: Solubility after 48 hours) of the same molecule?
A: The solubility at 48 h was 132 µg/mL (≈ 379 µM).

Q: And the solubility at 24 h ([1]; pH 5.4, water, Water, pH initial 6.3, pH (24 h) 5.4, read-out: Solubility after 24 hours)?
A: The solubility at 24 h was 148 µg/mL (≈ 425 µM).

Q: What about the solubility at 24 h ([1]; pH 6, aqueous buffer, Histidine pH 6.0, pH initial 6.1, pH (24 h) 5.8, read-out: Solubility after 24 hours) of the same molecule?
A: Its solubility at 24 h is 532 µg/mL (≈ 1530 µM).

Q: What about the solubility at 48 h ([1]; pH 6, aqueous buffer, Histidine pH 6.0, pH initial 6.1, pH (48 h) 5.8, read-out: Solubility after 48 hours) of the same molecule?
A: Its solubility at 48 h is 485 µg/mL (≈ 1390 µM).

Q: What about the solubility at 24 h ([1]; pH 6.8, aqueous buffer, Potassium phosphate pH 6.8, pH initial 6.9, pH (24 h) 6.6, read-out: Solubility after 24 hours) of the same molecule?
A: The solubility at 24 h was 2370 µg/mL (≈ 6800 µM).

Q: And the solubility at 48 h ([1]; pH 6.8, aqueous buffer, Potassium phosphate pH 6.8, pH initial 6.9, pH (48 h) 6.5, read-out: Solubility after 48 hours)?
A: The solubility at 48 h was 2710 µg/mL (≈ 7770 µM).

Q: And the solubility at 24 h ([1]; pH 6.9, aqueous buffer, 0.03N NaOH, pH initial 12.3, pH (24 h) 6.9, read-out: Solubility after 24 hours)?
A: The solubility at 24 h was 10600 µg/mL (≈ 30300 µM).

Q: And the solubility at 48 h ([1]; pH 6.9, aqueous buffer, 0.03N NaOH, pH initial 12.3, pH (48 h) 6.9, read-out: Solubility after 48 hours)?
A: The solubility at 48 h was 10300 µg/mL (≈ 29400 µM).

Q: What about the solubility at 48 h ([1]; pH 7, aqueous buffer, 0.1N NaOH, pH initial 12.8, pH (48 h) 7.0, read-out: Solubility after 48 hours) of the same molecule?
A: The solubility at 48 h was 33500 µg/mL (≈ 96100 µM).

Q: And the solubility at 24 h ([1]; pH 7, aqueous buffer, Sodium phosphate pH 7.0, pH initial 7.0, pH (24 h) 6.7, read-out: Solubility after 24 hours)?
A: Its solubility at 24 h is 3520 µg/mL (≈ 10100 µM).

Q: And the solubility at 48 h ([1]; pH 7, aqueous buffer, Sodium phosphate pH 7.0, pH initial 7.0, pH (48 h) 6.6, read-out: Solubility after 48 hours)?
A: The solubility at 48 h was 3620 µg/mL (≈ 10400 µM).

Q: And the solubility at 24 h ([1]; pH 7.1, aqueous buffer, 0.1N NaOH, pH initial 12.8, pH (24 h) 7.1, read-out: Solubility after 24 hours)?
A: The solubility at 24 h was 31900 µg/mL (≈ 91500 µM).

Q: And the solubility at 48 h ([1]; pH 7.4, aqueous buffer, 0.3N NaOH, pH initial 13.2, pH (48 h) 7.4, read-out: Solubility after 48 hours)?
A: The solubility at 48 h was 93600 µg/mL (≈ 269000 µM).

Q: And the solubility at 24 h ([1]; pH 11.7, aqueous buffer, 0.3N NaOH, pH initial 13.2, pH (24 h) 11.7, read-out: Solubility after 24 hours)?
A: Its solubility at 24 h is 87800 µg/mL (≈ 252000 µM).

Q: And the “Mean % change in sUA from predose” value ([2]; 2 mg/Fasted)?
A: The value was 8%.

Q: What about the “Mean % change in sUA from predose” value ([2]; 5 mg/Fasted) of the same molecule?
A: Its value is 15%.

Q: And the “Mean % change in sUA from predose” value ([2]; 20 mg/Fasted)?
A: Its value is 43%.

Q: What about the “Mean % change in sUA from predose” value ([2]; 40 mg/Fasted) of the same molecule?
A: The value was 58%.

Q: What about the “Urine Urate Excretion 0-6 hrs/0-24 hrs” value [3] of the same molecule?
A: Its value is 0.468.

Q: And the “Urine Urate Excretion UUE 0-6 hrs” value [3, 6]?
A: The value was 509 mg.

Q: What about the “Urine Urate Excretion UUE 6-12 hrs” value [3, 6] of the same molecule?
A: The value was 231 mg.

Q: What about the “Urine Urate Excretion UUE 12-24 hrs” value [3, 6] of the same molecule?
A: The value was 347 mg.

Q: What about the half-life [4] of the same molecule?
A: The half-life was 10 to 28 h.

Q: What about the “decrease of AUC∞ by a low-fat meal compared with the fasted state” value [5] of the same molecule?
A: Its value is roughly 17%.

Q: What about the “decrease of Cmax by a low-fat meal compared with the fasted state” value [5] of the same molecule?
A: The value was “approximately 21%”.
